# Key:
# Assay in all cases: relative viability (nuclei count vs DMSO), 5 days (fraction); higher = more cells survive
# [1] = test system: HARA
# In short: (§1)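 Lung cancer cell lines were pin-tool dosed in 1536-well plates on the day after seeding, with either a lone drug or a fixed anchor-drug dose plus five library-drug doses (not always all listed) in √10 steps. Nuclei were counted on 4× images after 5 days. Relative viability is the ratio of treated-well to vehicle-well nuclei counts, with each value a median of duplicate plates.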
# [2] = test system: 201T
# In short: as §1
# [3] = test system: BEN
# In short: as §1
# [4] = test system: NCI-H1666
# In short: as §1
# [5] = test system: LOU-NH91
# In short: as §1
# [6] = test system: NCI-H1993
# In short: as §1
# [7] = test system: NCI-H596
# In short: as §1
# [8] = test system: NCI-H727
# In short: as §1
# [9] = test system: NCI-H2126
# In short: as §1
# [10] = test system: NCI-H2023
# In short: as §1
# [11] = test system: NCI-H2087
# In short: as §1
# [12] = test system: NCI-H441
# In short: as §1
# [13] = test system: NCI-H2009
# In short: as §1
# [14] = test system: NCI-H23
# In short: as §1
# [15] = test system: NCI-H1395
# In short: as §1
# [16] = test system: HCC-44
# In short: as §1
# [17] = test system: NCI-H838
# In short: as §1
# [18] = test system: NCI-H3122
# In short: as §1
# [19] = test system: LCLC-103H
# In short: as §1
# [20] = test system: NCI-H2347
# In short: as §1
# [21] = test system: NCI-H647
# In short: as §1
# [22] = test system: NCI-H650
# In short: as §1
# [23] = test system: EMC-BAC-2
# In short: as §1
compound,measurement,setting,value
Oc1nc(-c2ccc(C(F)(F)F)cc2)nc2c1CSCC2 [XAV939] + C[C@]1(O)C[C@@H](c2nc(-c3ccc4ccc(-c5ccccc5)nc4c3)c3c(N)nccn32)C1 [Linsitinib] (partner 1 µM),relative viability,[1]; first compound 0.08 µM,1.25
same,relative viability,[1]; first compound 0.253 µM,0.414
same,relative viability,[1]; first compound 0.8 µM,0.779
same,relative viability,[1]; first compound 2.53 µM,0.956
same,relative viability,[2]; first compound 0.08 µM,0.937
same,relative viability,[2]; first compound 0.253 µM,0.8
same,relative viability,[2]; first compound 0.8 µM,0.857
same,relative viability,[2]; first compound 2.53 µM,0.873
same,relative viability,[3]; first compound 0.08 µM,1.17
same,relative viability,[3]; first compound 0.253 µM,0.894
same,relative viability,[3]; first compound 0.8 µM,0.934
same,relative viability,[4]; first compound 0.08 µM,0.816
same,relative viability,[4]; first compound 0.253 µM,0.598
same,relative viability,[4]; first compound 0.8 µM,0.712
same,relative viability,[4]; first compound 2.53 µM,0.568
same,relative viability,[5]; first compound 0.08 µM,0.903
same,relative viability,[5]; first compound 0.253 µM,0.842
same,relative viability,[5]; first compound 0.8 µM,0.996
same,relative viability,[5]; first compound 2.53 µM,0.911
same,relative viability,[6]; first compound 0.8 µM,0.754
same,relative viability,[6]; first compound 2.53 µM,0.719
same,relative viability,[7]; first compound 0.08 µM,1.09
same,relative viability,[7]; first compound 0.253 µM,1.02
same,relative viability,[7]; first compound 0.8 µM,1.03
same,relative viability,[7]; first compound 2.53 µM,0.924
same,relative viability,[8]; first compound 0.08 µM,0.315
same,relative viability,[8]; first compound 0.253 µM,0.246
same,relative viability,[8]; first compound 0.8 µM,0.233
same,relative viability,[8]; first compound 2.53 µM,0.372
same,relative viability,[9]; first compound 0.08 µM,0.727
same,relative viability,[9]; first compound 0.253 µM,0.61
same,relative viability,[9]; first compound 0.8 µM,0.672
same,relative viability,[9]; first compound 2.53 µM,0.642
same,relative viability,[10]; first compound 0.08 µM,0.699
same,relative viability,[10]; first compound 0.253 µM,0.626
same,relative viability,[10]; first compound 0.8 µM,0.625
same,relative viability,[10]; first compound 2.53 µM,0.447
same,relative viability,[11]; first compound 0.08 µM,1.14
same,relative viability,[11]; first compound 0.253 µM,0.936
same,relative viability,[11]; first compound 0.8 µM,0.939
same,relative viability,[11]; first compound 2.53 µM,0.672
same,relative viability,[12]; first compound 0.08 µM,0.675
same,relative viability,[12]; first compound 0.253 µM,0.413
same,relative viability,[12]; first compound 0.8 µM,0.507
same,relative viability,[12]; first compound 2.53 µM,0.507
same,relative viability,[13]; first compound 0.08 µM,1.19
same,relative viability,[13]; first compound 0.253 µM,0.904
same,relative viability,[13]; first compound 0.8 µM,1.17
same,relative viability,[13]; first compound 2.53 µM,1.09
same,relative viability,[14]; first compound 0.08 µM,0.612
same,relative viability,[14]; first compound 0.253 µM,0.559
same,relative viability,[14]; first compound 0.8 µM,0.647
same,relative viability,[14]; first compound 2.53 µM,0.433
same,relative viability,[15]; first compound 0.08 µM,1.09
same,relative viability,[15]; first compound 0.253 µM,1.04
same,relative viability,[15]; first compound 0.8 µM,1.11
same,relative viability,[15]; first compound 2.53 µM,0.974
same,relative viability,[16]; first compound 0.08 µM,0.789
same,relative viability,[16]; first compound 0.253 µM,0.673
same,relative viability,[16]; first compound 0.8 µM,0.659
same,relative viability,[16]; first compound 2.53 µM,0.651
same,relative viability,[17]; first compound 0.08 µM,1.02
same,relative viability,[17]; first compound 0.253 µM,0.901
same,relative viability,[17]; first compound 0.8 µM,0.839
same,relative viability,[17]; first compound 2.53 µM,0.719
same,relative viability,[18]; first compound 0.08 µM,1.02
same,relative viability,[18]; first compound 0.253 µM,0.986
same,relative viability,[18]; first compound 0.8 µM,0.951
same,relative viability,[18]; first compound 2.53 µM,0.557
same,relative viability,[19]; first compound 0.08 µM,1.05
same,relative viability,[19]; first compound 0.253 µM,0.943
same,relative viability,[19]; first compound 0.8 µM,1.19
same,relative viability,[19]; first compound 2.53 µM,1.02
same,relative viability,[20]; first compound 0.08 µM,1.08
same,relative viability,[20]; first compound 0.253 µM,0.997
same,relative viability,[20]; first compound 0.8 µM,0.931
same,relative viability,[20]; first compound 2.53 µM,1
same,relative viability,[21]; first compound 0.08 µM,1.13
same,relative viability,[21]; first compound 0.253 µM,0.864
same,relative viability,[21]; first compound 0.8 µM,1.06
same,relative viability,[21]; first compound 2.53 µM,1.02
same,relative viability,[22]; first compound 0.08 µM,1.13
same,relative viability,[22]; first compound 0.253 µM,1.07
same,relative viability,[22]; first compound 0.8 µM,0.911
same,relative viability,[22]; first compound 2.53 µM,0.857
same,relative viability,[23]; first compound 0.08 µM,0.868
same,relative viability,[23]; first compound 0.253 µM,0.705
same,relative viability,[23]; first compound 0.8 µM,0.711
same,relative viability,[23]; first compound 2.53 µM,0.511
